According to US6703426B1, “Treatment of breast cancer” (University of Central Florida, priority 2001, dated 2004):
Read-outs that look alike come from different tables or passages of the source.

What was measured:
white mice [1] = test: Animal toxicity bioassay (acute toxicity, LD50); assay type: in vivo; details: intraperitoneal injection, observed 14 days
[2] = system: human breast cancer cells (ATCC HTB123); test: Cytotoxicity assay (MTS/PMS), growth inhibition of human breast cancer cells; assay type: cell-based; set-up: concentration or dose not given beside the values; details: approximately 48 hours growth with test compound
Description: The activity in human breast cancer of the novel compounds (as earlier reported) was realized by the following procedure which determines the inhibitory effect of test samples on the growth of human breast cancer cells.
(ATCC HTB123) The HTB123 cells are grown in RPMI 1640 media+10% Fetal bovine serum+4.5 g/L glucose+10 mM HEPES+1.0 mM sodium pyruvate+1% Antibiotic/Antimycotic for approximately 48 hours at 37° C./5% CO2 in the presence of the test compound.
Growth/Non-Growth of the cells (e.g., cell density) is determined using Promega's MTS/PMS assay system. MTS (3-(4,5-dimethylthiazol-2-yl)-5-(3-carboxymethoxyphenyl)-2-(4-sulfophenyl)-2H-tetrazolium, inner salt) is an aqueous compound that is reduced to soluble formazan by the presence of NADH formed by dehydrogenases present within the HTB123 cells. The absorbance of the formazan can be measured at 490 nm and is directly proportional to the number of living cells present in the culture. PMS (Phenazine Methosulfate) is added an electron coupling reagent and greatly increases the rate of reduction.
To facilitate a full understanding of the procedure the following definitions are offered:
Test wells—wells containing test sample and Diluted HTB 123 cells
Test values—absorbance of test wells
Blank wells—wells containing test sample and HTB 123 media (HHTB2-01S); used to obtain background absorbance due to test sample
Blank values—absorbance of blank wells.
Negative Control—maximal cell growth; results of test samples will be expressed as a percent of the Negative Control
Positive Control—known inhibitor of HTB123 cells; used to validate assay system
Matrix—solvent that the samples are prepared/diluted in
Assay samples of similar origin and matrix (e.g., methanol extraction, methylene chloride extraction, water soluble samples, etc.) together on the same plate in order to reduce the number of steps performed per plate.
Blank values will be determined for each sample to account for any color contribution due to the sample itself. These blank wells must contain the same amount of sample plus HTB123 media (no cells). After completion of MTS/PMS reaction blank values will be subtracted from the test value to obtain a net absorbance that will be used to calculate cell density.
All results are based upon a comparison to the Negative Control value of the plate. The Negative Control must contain the same amount of matrix (e.g., solvent) to offset any destructive effect the matrix may have on the growth of the HTB123 cells (allows for baseline values to be set).
For most samples, a HTB123 cell growth (diluted two to four-fold, depending upon the appearance of the inoculum*) of approximately 48 hours followed by and incubation of 3 hours with the MTS/PMS Reagent is optimal.
*Due to the nature of the HTB123 cells it is very difficult to obtain accurate cell densities. Continuation of the HTB123 cell line typically consists of the dilution of mature cells at two or three-fold into fresh media and growth at 37° C./5% CO2 for two to three days.
In order to establish the accuracy of this assay a Positive Control consisting of 50 μM Methotrexate should […] 90% of the Negative Control (HTB123 cells are somewhat resistant to methotrexate) is utilized.

[3] = Animal toxicity bioassay (acute toxicity, LD50); assay type: in vivo; details: both sexes, mouse, in vivo, ip, white mice, intraperitoneal injection, observed 14 days
[4] = Solubility in solvents and water; assay type: physicochemical; details: for Solubility in organic solvents: organic solvents as listed
Stability in solution = assay type: physicochemical; details: solution heated or stored for a long time; decomposes with formation of OF-12
[5] = background statement; cited from earlier work
white mice [6] = details: same bioassay system (JZKEDZ 6,1,1980); cited from earlier work
[7] = read-out: LD50 (animal toxicity)

| Compound | Activity (ATCC HTB123) [2] | LD50 at 14 days [3, 7] | percent activity against human breast carcinoma [2] | Solubility in organic solvents [4] | also measured |
| --- | --- | --- | --- | --- | --- |
| COC(=O)/C(=C/C(=O)c1ccccc1)NN=C1c2ccccc2-c2ccccc21 [1F-04, 2-(N′-Fluoren-9-ylidene-hydrazino)-4-oxo-4-phenyl-but-2-enoic acid methyl ester] | 93% |  |  |  | LD50 (white mice [1]): >1000 mg/kg |
| COC(=O)C1(O)C(C(=O)c2ccc(C)cc2)=C(O)C(=O)N1c1ccc(C)cc1C (centres unmarked) [1F-07, 1-(2,4-Dimethyl-phenyl)-2,4-dihydroxy-3-(4-methyl-benzoyl)-5-oxo-2,5-dihydro-1H-pyrrole-2-carboxylic acid methyl ester] |  | > 500 mg/kg | 100% | highly soluble in DMSO, acetonitrile, slightly soluble in dichloroethane, benzene, insoluble in hexane tetrachloromethane | Solubility in water [4]: insoluble |
| COc1ccc(C(=O)C(=NNc2ccccc2)C(=O)C(=O)O)cc1 [3F-10, 4-(4-Methoxy-phenyl)-2,4-dioxo-3-(phenyl-hydrazono)-butyric acid] |  | < 750 mg/kg | 100% | highly soluble in DMSO, DMFA, slightly soluble in chloroform, dichloroethane; insoluble in hexanes |  |
| CCOC(=O)C(=O)C(=NNc1ccccc1)C(=O)c1ccc(Cl)cc1 [3F-11, 4-(4-Chloro-phenyl)-2,4-dioxo-3-(phenyl-hydrazono)-butyric acid ethyl ester] |  | > 2000 mg/kg | 100% |  |  |
| COc1c(F)c(F)c(C(=O)C=C(O)C(=O)O)c(F)c1F [3F-15, 2-Hydroxy-4-oxo-4-(2,3,5,6-tetrafluoro-4-methoxy-phenyl)-but-2-enoic acid] |  | > 200 mg/kg | 100% |  |  |
| Cc1ccc(C(=O)C2=NN(c3ccccc3)C(=O)C2(O)O)cc1 [3F-16, 4,4-Dihydroxy-5-(4-methyl-benzoyl)-2-phenyl-2,4-dihydro-pyrazol-3-one] |  | > 500 mg/kg | 100% | highly soluble in DMSO, dioxane | Solubility in water [4]: insoluble |
| CCOc1ccc(C(Cl)=CC(=NN=C2c3ccccc3-c3ccccc32)C(=O)OC)cc1 [3F-19, 4-Chloro-4-(4-ethoxy-phenyl)-2-(fluoren-9-ylidene-hydrazono)-but-3-enoic acid methyl ester] | 100% |  |  |  | LD50 at 14 days ([3]; read-out: LD50): > 200 mg/kg |
| COC(=O)C(=CC(=O)C(C)(C)C)NN=C1c2ccccc2-c2ccccc21 [OF-06, 2-(N′-Fluoren-9-ylidene-hydrazino)-5,5-dimethyl-4-oxo-hex-2-enoic acid methyl ester] |  |  | 100% | highly soluble in DMSO, DMFA, dichloroethane, acetonitrile, slightly soluble in ethanol, tetrachloromethane, insoluble in hexane | Solubility in water [4]: insoluble |
| CCOc1ccc(C(=O)CC(O)(NN=C2c3ccccc3-c3ccccc32)C(=O)OC)cc1 (centres unmarked) [OF-13, 4-(4-Ethoxy-phenyl)-2-(N′-fluoren-9-ylidene-hydrazino)-2-hydroxy-4-oxo-butyric acid methyl ester] | 100% |  |  | highly soluble in DMSO, DMFA, dichloroethane, acetonitrile, insoluble in hexane | Stability in solutions (Stability in solution): not stable in solutions; LD50 (white mice [1]): >1500 mg/kg |
| COC(=O)/C(=C/C(=O)c1ccccc1)N/N=C(\C)c1ccc(Cl)cc1 [OF-20, 2-{N′-[1-(4-Chloro-phenyl)-ethylidene]-hydrazino}-4-oxo-4-phenyl-but-2-enoic acid methyl ester] | 83% |  |  |  |  |
| CC(=O)O[C@H]1C(=O)[C@@]2(C)[C@H]([C@H](OC(=O)c3ccccc3)[C@]3(O)C[C@H](OC(=O)[C@H](O)[C@@H](NC(=O)c4ccccc4)c4ccccc4)C(C)=C1C3(C)C)[C@]1(OC(C)=O)CO[C@@H]1C[C@@H]2O [Taxol] |  |  |  |  | Solubility in water [5]: insoluble in water; intraperitoneal LD50 dose in mice (white mice [6]): 218 mg/kg |
